# From article PMC9137037 (Frontiers in Oncology, 2022)
# Where no end group is shown, it is not given here.
# Legend:
# cynomolgus monkeys = assay: GLP repeat-dose toxicology, first monkey study No.00213515; type: in vivo, Macaca fascicularis
# Method: The non-human primate studies were carried out by the Charles River Laboratories (Ashland, OH USA). All the cynomolgus monkeys (Macaca fascicularis of Chinese origin) were obtained from Charles River Laboratories (Houston, TX, USA). In brief, the animals were approximately 2–4 years old and at the body weight between 2.2 and 3.1 kg at the initial dosing. The animals were kept at the temperature between 19°C and 24°C, humidity 30%–70%, and with 12 h light and 12 h dark light cycle. The Good manufacturing practice (GMP)-manufactured vaccine was used in the non-human primate study. […] Similar to mouse and dog dosing preparation, after the emulsion was prepared, a drop test was performed on each time of dosing to confirm that the emulsion had been prepared properly. […] The dose volume was split approximately equally across two different sites; 0.5 ml of the dose was intramuscularly (IM) injected into the right posterior lateral thigh, the left dosing was injected into the left site. All the animals’ body weights were monitored weekly after receiving. After each immunization, the animal body temperature was tested 6 and 24 h post each immunization. […] The animal bleed were collected before each time of immunization to monitor the antibody titers. There were two sets of non-human primate studies conducted. The first set of monkey study No.00213515 had 24 monkeys, 12 males, and 12 females divided into 4 groups: vehicle control, low dose 0.5 mg, medium dose 2 mg, and high dose 5 mg. There were 16 monkeys (8 males and 8 females) in the second set of monkey study No. 00213519. The monkeys in the four groups were vaccinated as follows: vehicle control, low dose 25 μg, medium dose 100 μg, and high dose 250 μg.
# In the non-human primate study (#00213515), 24 non-human primates, cynomolgus monkeys, were used. The monkeys were immunized four times (1Y, 2Y, 3Y, and 4Y at days 1, 15, 29, and 43, respectively). Sera were collected at day 1 (pre), day 43, and day 59 ( Figure 4A ). There were four groups and 6 monkeys in each group. Group 1 was the control group, which was treated with only ISA 720 and ddwater. Groups 2, 3, and 4 were peptide PD-1Vaxx treatment groups and were treated with low-dose 0.5 mg/dose, medium-dose […], or high-dose […] peptide vaccine, respectively ( Figure 4B ), emulsified in ISA 720.
# These observations were first noted beginning after the second or third dose and were more frequent in female monkeys compared to male monkeys. • b) After the recovery period, all APi2568-related clinical observations had either recovered or were in the process of recovering, with the exception of swollen hind limbs.
# beagle dogs = assay: ELISA antibody titers in sera of immunized beagle dogs; type: in vivo, dog; settings: for antibody titers in sera (words): beagle dogs, 1.0, 1.5, 3.0 mg with nor-MDP and ISA 720, ELISA
# Method: In brief, the beagle dogs were purchased from Covance Research Products (Cumberland, VA, USA) and were housed in the Ohio State University Veterinarian Facility Institutional Animal Care Facility. The dogs were housed at 19°C−24°C room temperature with approximately 70% humidity, and 12 h light and 12 h dark–light cycle. The dogs’ body weights were at least 7.5 kg when they received the first immunization. […] The dogs received a total of 4 doses, immunization was done at the rear thigh with two sites of injections, the bleed was collected as indicated time points to monitor the antibody titers, and the body weight of each dog was monitored closely (see Figures 3B, C for detail).
# Enzyme-linked immunosorbent assay (ELISA) was performed per our lab standard procedure. Briefly, a 96-well plate was coated with 100 μl of MVF-PD-1(92-110) peptide as an antigen at 2 μg/ml in phosphate-buffered saline (PBS; Research Products International, Mt Prospect, IL, USA, CAS No. 7647-145) overnight at 4°C. Nonspecific binding sites were blocked for 1 h with 200 μl of PBS with 1% BSA (bovine serum albumin; Thermo Fisher Scientific, Waltham, […], USA, BP9703-100), and the plate was washed with a washing buffer (PBS diluted 0.05% Tween 1% horse serum). […] After washing, the antibody was detected using 50 μl of 0.15% H2O2 in 24 mM of citric acid and 5 mM of the sodium phosphate buffer (pH5.2) with 0.5 mg/ml 2, […] (3-ethylbenzthiazole- 6-sulfonic acid, ABTS; Sigma, St. Louis, MO, USA) as the chromophore. […] Absorbance was read at 415 nm using an ELISA microplate reader (SPECTRAmax PLUS384; Molecular Devices, San Jose, CA, USA). The highest dilution at the cutoff absorbance 0.2 were determined as the antibody titer.
# This study was designed to monitor the kinetics of how quickly the antibody levels to MVF-PD-1(92-110) diminished after the dosing was stopped. […] We monitored the beagle dogs’ body weight closely during the immunization period ( Figure 3C ).
sequence,measurement,setting,value
KLLSLIKGVIVHRLEGVEGPSLGAISLAPKAQIKESLRAEL [MVF-PD-1(92-110)],no-observed-adverse-effect level (NOAEL),"cynomolgus monkeys; 0.5, 2, 5 mg/dose IM as PD1-Vaxx, male and female cynomolgus monkeys",could not be determined
same,clinical findings at or near the IM site of dose administration,"cynomolgus monkeys; 0.5, 2, and 5 mg/dose groups, first noted after second or third dose, more frequent in females","adverse swelling, ulceration, and/or abscess formation"
same,induction of autoimmune responses,cynomolgus monkeys; cynomolgus monkeys,has not been observed
same,safety (summary),cynomolgus monkeys; monkey 1st set,safe
same,antibody titers in sera (words),beagle dogs,high titer antibody
same,antibody titers in sera (words),beagle dogs; listed as PD-1(92),high immunogenicity
same,antibody titers after dosing stopped and after re-challenge,"beagle dogs; beagle dogs, 4Y boost 6 months after primary immunization",dropped to very low levels in the absence of dosing but could be recovered if the dog was re-challenged with vaccine
